What all share (assay): GsX GloSensor assay with Gsα/q11
What all share (assay type): cell-based

For experiment [1], the system named is human melanopsin W189^ECL2F mutant. The following applies: 16.7 μM AA92593, COS-1 cells. The method, then: (§1) Based on the docking and MD simulations of human melanopsin with AA92593, importance of the interactions of Trp-189^ECL2 and Leu-207^5.42 with the antagonist was experimentally examined using the GsX GloSensor assay. To validate the interaction between Trp-189^ECL2 and AA92593, substitutions of W189^ECL2F, W189^ECL2I, or W189^ECL2V in human melanopsin were tested. […] To assess the importance of Leu-207^5.42 in the interaction with AA92593, substitutions L207^5.42V, L207^5.42A, or L207^5.42F in human melanopsin were tested. […] Of note, the L207^5.42F substitution enhanced the sensitivity (∼8%) of human melanopsin to AA92593 (Fig. 5F), although the difference was not statistically significant (Fig. 5H). Dose-dependent curve of reduction in the GsX GloSensor signals of the L207^5.42F was shifted by ∼0.6 μM from the curve of WT (Fig. 5I). The introduction of a Phe residue at position 207^5.42 caused additional interactions between the phenyl ring in Phe-207^5.42 and some functional groups in AA92593. The marked changes in the antagonistic effects of Trp-189^ECL2 and Leu-207^5.42 substitutions are consistent with our molecular simulations, showing that these residues are located at the antagonist-binding site (Fig. 4B).
(§2) For GloSensor assay, opsins, GloSensor assay sensor (coded by pGlo-22F), and NanoBiT-tagged G proteins were transiently expressed in COS-1 cells (kindly provided from Dr David Farrens, Oregon Health and Science University) using PEI as described previously ([24], [52]). For the GsX GloSensor assay ([12], [13]), each well of a 96-well assay plate (Corning) was transfected with 50 ng opsin plasmid, 16.7 ng G protein plasmid, 50 ng pGlo-22F plasmid (Promega), and 500 ng PEI in 25 μl Opti-mem and 75 μl Dulbecco's modified Eagle's medium (D-MEM). For NanoBiT G protein dissociation assay, each well of a 96-well assay plate was transfected with 50 ng opsin plasmid, 5 ng Lg-BiT inserted Gqα (Gqα-LgBiT) plasmid, 25 ng Gβ1 plasmid, 25 ng Sm-BiT fused Gγ2 plasmid, 5 ng RIC8A plasmid, and 500 ng PEI in 25 μl Opti-mem and 75 μl D-MEM. For GFP-fluorescence microscopy, a 35-mm cell culture dish (IWAKI) was transfected with 2 μg melanopsin-GFP plasmid and 8 μg PEI in 400 μl Opti-mem and 1.2 ml D-MEM. For melanopsin purification, ten of 100-mm cell culture dishes (NEST) were transfected with 150 μg melanopsin plasmid and 500 μg PEI in 25 ml Opti mem and 75 ml D-MEM.
(§3) The transfected COS-1 cells were incubated at 37 °C, 5% CO2 for 2 days, and the medium was aspirated and exchanged with 50 μl of HBSS (145 mM NaCl, 10 mM D-glucose, 5 mM KCl, 1 mM MgCl2, 1.7 mM CaCl2, 1.5 mM NaHCO3, 10 mM Hepes, pH 7.4), containing 33.3, 20, 10, 2, 0.2, 0.02, 0.002, or 0 μM AA92593, 0.5% dimetyl sulfoxide (DMSO), and 4% (vol/vol) GloSensor cAMP reagent stock solution. Under our experimental conditions, >50 μM AA92593 was not fully dissolved in the HBSS solution, and we set maximal concentration of AA92593 (Glixx Laboratories) at 33.3 μM (final concentration of 16.7 μM, see below). Then, the cells were incubated at room temperature for 1 h, and luminescence changes were monitored. After incubation of the cells with AA92593, luminescence measurement was interrupted, the plate was ejected, and the cells were added with 50 μl of HBSS containing 0.2 μM 9-cis-retinal. The final exogenous AA92593 concentrations were 16.7, 10, 5, 1, 0.1, 0.01, 0.001, or 0 μM, and retinal concentration was 0.1 μM. Twenty millimolars of stock solution of AA92593 was prepared in DMSO, and final concentration of DMSO was kept at 0.25% regardless final AA92593 concentration. Then, the cells were incubated at room temperature for 1 h. Luminescence was measured using GM-2000 or GM-3510 microplate reader (Promega). Luminescence level of each well was measured every 30 s with integration time of 0.6 to 0.9 s. […]

Experiment [2] addresses T1, human melanopsin W189^ECL2I mutant (Homo sapiens, UniProt Q9UHM6, W223I).
T1 construct: expressed in transfected cells; host or cells: COS-1
The following applies: 16.7 μM AA92593, COS-1 cells. The protocol: as §1, §2, §3

For experiment [3], the target named is T2, human melanopsin W189^ECL2V mutant (Homo sapiens, UniProt Q9UHM6, W223V).
T2 construct: expressed in transfected cells; host or cells: COS-1
T2 sequence (Q9UHM6 1-384 W223V limits assumed): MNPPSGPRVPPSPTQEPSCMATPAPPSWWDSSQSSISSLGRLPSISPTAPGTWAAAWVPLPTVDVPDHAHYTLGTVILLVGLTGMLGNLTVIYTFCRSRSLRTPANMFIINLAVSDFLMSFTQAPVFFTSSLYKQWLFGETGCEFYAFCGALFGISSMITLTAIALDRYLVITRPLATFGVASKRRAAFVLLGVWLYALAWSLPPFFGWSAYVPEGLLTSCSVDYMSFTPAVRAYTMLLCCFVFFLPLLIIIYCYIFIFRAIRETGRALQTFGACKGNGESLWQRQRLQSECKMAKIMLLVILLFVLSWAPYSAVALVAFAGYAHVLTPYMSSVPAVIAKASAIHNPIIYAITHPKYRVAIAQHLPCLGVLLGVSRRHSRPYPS
The following applies: 16.7 μM AA92593, COS-1 cells. The method, then: as §1, §2, §3

Experiment [4] addresses T3, human melanopsin L207^5.42F mutant (Homo sapiens, UniProt Q9UHM6, L239F).
T3 construct: the C-terminal amino acid residues (94, 140, 200, 214, 296, and 308 residues); expressed in transfected cells; host or cells: COS-1
T3 sequence (Q9UHM6 1-384 L239F limits assumed): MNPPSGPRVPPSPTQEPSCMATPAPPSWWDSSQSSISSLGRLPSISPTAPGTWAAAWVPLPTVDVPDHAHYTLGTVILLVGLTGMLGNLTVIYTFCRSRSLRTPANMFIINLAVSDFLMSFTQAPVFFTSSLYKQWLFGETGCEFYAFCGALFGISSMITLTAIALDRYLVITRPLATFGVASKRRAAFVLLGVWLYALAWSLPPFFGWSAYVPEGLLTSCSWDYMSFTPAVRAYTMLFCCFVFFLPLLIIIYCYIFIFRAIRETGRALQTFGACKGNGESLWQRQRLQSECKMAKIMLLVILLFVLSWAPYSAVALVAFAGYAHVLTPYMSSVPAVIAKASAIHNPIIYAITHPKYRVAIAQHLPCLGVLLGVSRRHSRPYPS
The method, then:
as §1, §2, §3

The subject of experiment [5] is human melanopsin L207^5.42A mutant. The following applies: 16.7 μM AA92593, COS-1 cells. The method, then:
as §1, §2, §3

Experiment [6] concerns human melanopsin L207^5.42V mutant. The following applies: 16.7 μM AA92593, COS-1 cells. The method, then: as §1, §2, §3
Setting [7] is: relative peak cAMP response vs no AA92593.

T1 sequence (Q9UHM6 1-384 W223I limits assumed): as the sequence (Q9UHM6 1-384 W223V limits assumed) above, with V223I counted along it

For `COc1ccc(S(=O)(=O)N2CCCCC2)cc1C` [AA92593], the “decrease in sensitivity to AA92593 vs WT” value in experiment [1] is given as roughly 60%. The “inhibitory effect of AA92593 compared to WT” value in experiment [2] and in experiment [3] was “significantly weaker” in each case. Besides, the “Hill fitting parameter rate of dose-response curve” value in experiment [4] is on record as −0.88 ± 0.29. For the same compound, the “enhanced sensitivity to AA92593 vs WT” value in experiment [4] (16.7 μM AA92593, COS-1 cells, Gsα/q11, difference not statistically significant) is on record as roughly 8%. The IC50 in experiment [4] (COS-1 cells, n = 3, read-out: IC50, reduction in peak cAMP responses upon Gsα/q11 activation) came out at 350 ± 160 nM. In addition, the “Hill fitting parameter max of dose-response curve” value in experiment [4] (setting [7]) stood at 98.88 ± 4.88. In experiment [4] (setting [7]), the “Hill fitting parameter min of dose-response curve” value is 3.15 ± 9.9. Further, the “reduced antagonistic effect of AA92593 vs WT” value in experiment [5] is on record as roughly 12%; in experiment [6], roughly 15%.

For the origin of these results see article PMC12051620, “Molecular basis underlying the specificity of an antagonist AA92593 for mammalian melanopsins” (The Journal of Biological Chemistry, 2025).
